Reference: patent US20250034139A1, “AMINE COMPOUNDS HAVING ANTI-INFLAMMATORY, ANTIFUNGAL, ANTIPARASITIC, AND ANTICANCER ACTIVITY” (PHARMA CINQ, LLC, priority 2013, published 2025)
Marks after values point to notes of the source that are not given here.

How the values were obtained:
[1] = system: PC3 human prostate cancer cells; assay: Example S: in vitro anticancer screen, PC-3 cells, Wst1; format: cell-based; conditions: Homo sapiens, PC-3, approximately 20 hours, Wst1, read-out: PC-3, percent of cancer cell survival relative to vehicle treated cells
How it was run: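 Values give percent survival relative to vehicle, read by Wst1 absorbance (450/630 nm) after 2 h dye incubation, in triplicate. Cells were seeded at 2×10^4/well and treated about 20 h with compound at 0.4, 0.5 or 2.5 μM, depending on compound.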

[2] = system: 4T1 mouse mammary breast cancer cells; assay: Example O: syngeneic 4T1 breast cancer growth in Balb/C mice; format: in vivo; conditions: for Final Tumor Volume / Δ BW % / Final Body Weight / Initial Body Weight: 4T1 in female Balb/C mice; for Final Tumor Volume: 120 μmol/kg/day oral gavage, day 2 to day 30; for Δ BW % / Final Body Weight / Initial Body Weight: 120 μmol/kg/day oral; for Δ BW %: final vs initial body weight; for Final Body Weight: in g (unit assumed); for Initial Body Weight: initial (baseline)
Experimental: Cancer models in mice generally either involve syngeneic murine tumors in immunocompetent mice or xenografts of human tumors in immunocompromised mice. […] Mice received test compounds by oral gavage in 1% hydroxypropylmethylcellulose from day 2 until day 30. Tumor growth was assessed by caliper measurements twice per week and tumor weight after necropsy, and body weight was also monitored. Treatment groups were: • 1. […] HPMC) • 2. CI (120 μmol/kg/day) • 3. BA (120 μmol/kg/day) • 4. CP (120 μmol/kg/day) • 5. CQ (120 μmol/kg/day) • 6. AA (120 μmol/kg/day) • 7. AC (120 μmol/kg/day)

[3] = system: EAE induced by PLP139-151; assay: Example G: Experimental Autoimmune Encephalitis (EAE) mouse model of multiple sclerosis; format: in vivo; conditions: for EAE Score on Day 46: 60 μmol/kg by oral gavage from Day 14, score 0-5; for EAE Score on Day 14 (Before Treatment): baseline, score 0-5
THP-1 cells = assay: Example D: LPS-triggered THP-1 cell death assay, acute/5-hour and chronic/48-hour; format: cell-based, Human; conditions: 10 ng/ml LPS, 0.1 μM test compound, 48 hours
Experimental: Compounds of the invention were tested at 0.1 μM versus AC in the LPS-triggered THP-1 cell death assay. Both acute/5-hour and chronic/48-hour phases of cell death were assessed. Compounds were screened in batches with DMSO as the negative control and AC as the high activity control.

[4] = system: 4T1 murine breast cancer cells; assay: Example S: in vitro anticancer screen, 4T1 cells, Wst1; format: cell-based, mouse; conditions: Mus musculus, 4T1, 18 h, 18 hr, Wst1; for viability at 1 µM: read-out: 4T1 1 μM, percent of cancer cell survival relative to vehicle treated cells; for viability at 5 µM: read-out: 4T1 5 μM, percent of cancer cell survival relative to vehicle treated cells
How it was run: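 Read-out is Wst1 absorbance (450 nm, reference 630 nm) after roughly 2 hr dye incubation, giving percent cell survival versus vehicle. Before that, compounds at 1 μM or 5 μM were applied for 18 hr to 4T1 cells plated at 1×10^4 per well.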

[5] = system: PC-3 prostate cancer cells; assay: Example T: sensitisation of PC-3 cells to doxorubicin, oxaliplatin, paclitaxel or vincristine, Wst1; format: cell-based, human; conditions: PC-3 cells, 72 hours; for viability at 2.5 µM: compound 2.5 μM alone; for Doxorubicin 3.5 μM: percent cell survival / Oxaliplatin 100 μM: percent cell survival / Paclitaxel 50 μM: percent cell survival / Vincristine 100 nM: percent cell survival: chemotherapy agent alone normalized to 100%
[6] = system: HCT-116 colon adenocarcinoma cells; assay: Example Q: HCT-116 liver metastases of human colorectal cancer in nude mice; format: in vivo; conditions: 240 μmol/kg/day oral, 28 days
From the text: A major cause of morbidity and mortality in patients with colorectal cancer is metastasis of the tumor into the liver; colorectal cancer can often be successfully resected from the primary site, but metastases to the liver are much less accessible to surgical treatment. A mouse model of colorectal cancer metastasis to the liver has been established, using HCT-116 colon adenocarcinoma cells injected into the spleen of athymic (nude) mice. The HCT-116 cancer cells spontaneously spread from the spleen into the liver via the circulation, and they form tumors in the liver (Ishizu, K., Sunose, N., Yamazaki, K., Tsuruo, T., Sadahiro, S., Makuuchi, H., and Yamori, T. Development and Characterization of a Model of Liver Metastasis Using Human Colon Cancer HCT-116. Biol. Pharm. Bull. 2007, 30(9):1779-1783).
Mice (female Hsd:athymic nude-Foxn1^nu) were anesthetized with xylazine/ketamine intraperitoneal injection, followed by incision approximately 10 mm on the left subcostal region (area disinfected with ethanol) to expose the peritoneum. The peritoneum was opened for about 8 mm near the spleen, and 2.5×10^6 cells in 50 μL PBS were injected into the spleen using a 30G needle. The spleen was repositioned, and the surgical area was closed using sutures and clips.
The day after receiving cells, mice were randomized into groups of five based upon body weight to provide groups with approximately equivalent mean body weight. Mice received a single, daily oral dose of test article or vehicle (1% hydroxypropylmethylcellulose) beginning 48 hours following cell injection into the spleen.
At study termination 28 days after HCT-116 cell injection, body weights were recorded, and spleens and livers were removed, weighed and fixed in 10% formalin. Livers were sectioned and stained; the relative areas of normal and tumor tissue were quantified in histology sections with quantitative planimetry software.

[7] = system: Vit-D3 activated THP-1 cells; assay: Example B: Acridine Orange (A.O.) uptake, lysosomal acidification and integrity; format: cell-based, Human; conditions: 5 hours
Experimental: In this experiment, cell viability was monitored and uptake and accumulation of acridine orange, a lysosomotropic fluorescent dye, was used to assess lysosomal acidification and integrity. JC-1 dye was used to measure effects of test compounds on mitochondrial membrane potential (MMP); reduction of MMP is a feature of apoptotic cell death. • 1. […] The tubes were washed twice in DPBS, resuspended in 500 μl DPBS and acquired on the FACSCalibur.

S. cerevisiae = assay: Example I: Saccharomyces cerevisiae growth inhibition (OD 600 nm); format: cell-based; conditions: tested 4 to 50 μM
[8] = system: Cryptococcus neoformans (serotype D); assay: Example K: Cryptococcus neoformans (serotype D) growth inhibition; format: cell-based
[9] = Homo sapiens, Wst1, vehicle = 100, read-out: No Chemo: percent cell survival
[10] = compound 2.5 μM + doxorubicin 3.5 μM
[11] = compound 2.5 μM + oxaliplatin 100 μM
[12] = compound 2.5 μM + paclitaxel 50 μM
[13] = compound 2.5 μM + vincristine 100 nM
[14] = HCT-116 liver metastases, nude mice

Row | Structure (SMILES) | viability at 2.5 µM [1] [%] | Final Tumor Volume [2] [mm^3] | Δ BW % [2] [%] | Final Body Weight [2] | Initial Body Weight [2] [g] | EAE Score on Day 46 [3] | EAE Score on Day 14 (Before Treatment) [3] | Viable cell percent change, Chronic/48-hour, Mean (THP-1 cells) [%] | viability at 1 µM [4] [%] | viability at 5 µM [4] [%] | viability at 2.5 µM [5, 9] [%] | Doxorubicin 3.5 μM: percent cell survival [5, 10] [%] | Oxaliplatin 100 μM: percent cell survival [5, 11] [%] | Paclitaxel 50 μM: percent cell survival [5, 12] [%] | Vincristine 100 nM: percent cell survival [5, 13] [%] | also measured
1 | CCCCCCOc1ccccc1OCCNc1ccnc2ccccc12 [CP, N-{2-[2-(Hexyloxy)phenoxy]ethyl}quinolin-4-amine] | 35.6 | 352 ± 114 | −0.0 | 24.1 ± 1.3 | 24.1 ± 0.9 | 1.86 ± 0.34 | 0.86 ± 0.14 | 49.81 | 82.6 | 38 | 35.6 | 72.4 | 76.5 | 74.5 | 48.2 | –
2 | CCCCCCOc1ccccc1OCCCNc1ccnc2ccccc12 [CQ, N-{3-[2-(Hexyloxy)phenoxy]propyl}quinolin-4-amine] | 95.8 | 140 ± 60 | −2.0 | 24.4 ± 0.9 | 24.9 ± 0.6 | – | – | – | 71.9 | 57.9 | 95.8 | 86.5 | 93.8 | 34.8 | 47.1 | excess of the Vehicle group's liver weight/body weight ratio over the treated group [6]: 12%; area of liver invaded by metastatic cancer cells, in words ([6]; histology planimetry): markedly reduced the area of liver invaded by metastatic cancer cells; Final Body Weight Grams [6, 14]: 26.2 ± 0.9 NS Grams; Liver Weight % of Body Weight [6, 14]: 5.3 ± 0.1%; Tumor Area % of Vehicle Group [6, 14]: 0.15% *; Tumor Area % of Total Liver ([6]; HCT-116 liver metastases, nude mice, histology planimetry): 0.02 ± 0.01%; tumor growth versus vehicle-treated mice, in words ([2]; daily oral administration, 120 μM/kg/day as printed): most active of the compounds tested in this experiment
3 | CCCCCCOc1ccc(OCCCCNc2ccnc3ccccc23)cc1 [CZ, N-{4-[4-(Hexyloxy)phenoxy]butyl}quinolin-4-amine] | – | – | – | – | – | 2.29 ± 0.20 | 1.00 ± 0.00 | 53.70 | 50.6 | 28.3 | – | – | – | – | – | viability at 0.4 µM ([1]; 0.4 μM): 96.7%; viability at 0.4 µM ([5]; Homo sapiens, compound 0.4 μM alone, Wst1, vehicle = 100, read-out: No Chemo: percent cell survival): 96.7%; Doxorubicin 3.5 μM: percent cell survival ([5]; compound 0.4 μM + doxorubicin 3.5 μM): 89.1%; Oxaliplatin 100 μM: percent cell survival ([5]; compound 0.4 μM + oxaliplatin 100 μM): 91.1%; Paclitaxel 50 μM: percent cell survival ([5]; compound 0.4 μM + paclitaxel 50 μM): 101.9%; Vincristine 100 nM: percent cell survival ([5]; compound 0.4 μM + vincristine 100 nM): 90.3%
4 | CCN(CC)CCCC(C)Nc1ccnc2cc(Cl)ccc12 (stereo not drawn) [Chloroquine, Chloroquine diphosphate, reference compound] | – | – | – | – | – | – | – | – | – | – | – | – | – | – | – | A.O. FL-3 fluorescence (MFI) percent change from DMSO no LPS, Mean ± SE ([7]; 50.0 μM C.Q., 1 ng/ml LPS): −72.28 ± 0.78%; A.O. FL-3 fluorescence (MFI) percent change from DMSO no LPS, Mean ± SE ([7]; 100.0 μM C.Q., 1 ng/ml LPS): −88.28 ± 1.60%; A.O. FL-3 fluorescence (MFI) percent change from DMSO no LPS, Mean ± SE ([7]; 100.0 μM C.Q., No LPS): −91.25 ± 0.60%; inactive compound (inhibition of yeast growth, in words) (S. cerevisiae): did not show any inhibition of yeast growth up to 50 uM; IC50 ([8]; Cryptococcus deneoformans): > 100 µM; growth inhibition of Cryptococcus neoformans (maximum) ([8]; chloroquine at a concentration of 100 micromolar): less than 50%; inhibition at 100 µM ([8]; read-out: growth inhibition of Cryptococcus neoformans (maximum), chloroquine at a concentration of 100 micromolar): 40%
5 | CN(C(=O)c1c(O)c2ccccc2n(C)c1=O)c1ccccc1 [Linomide, reference compound] | – | – | – | – | – | 2.29 ± 0.48 | 0.93 ± 0.19 | – | – | – | – | – | – | – | – | –
